23 compounds from PMC11440591 (Journal of Medicinal Chemistry, 2024) can be followed below.

Data set [1] relates to EBOV-GP-pseudotyped virus (pEBOV). In words: microbe, parasite or virus in culture. The settings on record: for inhibition at 10 µM: Zaire ebolavirus, Vero C1008, read-out: %inh@10 μM (pEBOV); for EC50: Vesicular stomatitis virus, Vero C1008, 24 h, read-out: EC50 (pEBOV).
The subject of data set [2] is wild-type Zaire EBOV Mayinga 1976 strain (EBOV May). Kind of data set: microbe, parasite or virus in culture. The settings on record: Zaire ebolavirus, Vero C1008, 72 h, read-out: EC50 (EBOV May).
In data set [3] the test system is EBOV-GP-pseudotyped virus (pEBOV).
Data set [4] relates to VSV-G-pseudotype virus (pVSV-G). In words: microbe, parasite or virus in culture. The settings on record: Vesicular stomatitis virus, read-out: %inh@10µM (pVSV-G). The format is cell-based.
Data set [5] concerns wild-type Zaire EBOV Mayinga 1976 strain (EBOV May).

Broadly, the EC50 is the concentration at which the effect is half-maximal. Consider `O=C(Nc1cccc(Cl)c1)c1ccc(-c2ccccc2)s1` [compound 4], for which the CC50 in “in vitro” (chlorocebus sabaeus) was above 100 µM. Also, in data set [1], the inhibition at 10 µM was below 75%. Besides, the EC50 in data set [2] was above 100 µM.

`O=C(NCCc1ccccc1)c1ccc(-c2ccccc2)s1` [compound 5]: the CC50 is 100 µM in “in vitro” (African green monkey) and above 100 µM in the data set “in vitro” (chlorocebus sabaeus). For the same compound, in data set [1], the inhibition at 10 µM was below 75%. For the same compound, the EC50 in data set [2] is above 100 µM.

In the case of `CC(C)(C)OC(=O)N1CCC(Oc2ccccc2-c2ccc(C(=O)Nc3cccc(Cl)c3)s2)CC1` [compound 34, tert-butyl 4-(2-(5-((3-chlorophenyl)carbamoyl)thiophen-2-yl)phenoxy)piperidine-1-carboxylate], the “antiviral activity against pEBOV (in words)” value (“antiviral activity” below) in data set [3] is listed as “complete loss of activity”. Also, the CC50 in “in vitro” (chlorocebus sabaeus) was above 100 µM. The inhibition at 10 µM in data set [1] is -36%.

Turning to `O=C(Nc1ccc(Cl)cc1)c1ccc(-c2ccccc2OC2CCNCC2)s1` [compound 47, N-(4-Chlorophenyl)-5-(2-(piperidin-4-yloxy)phenyl)thiophene-2-carboxamide], in data set [4], the inhibition at 10 µM is -117%. Also, the “SI (CC50/EC50)” value came out at 3.32 in data set [3] and 18 in data set [5]. For the same compound, the CC50 at 24 h in the data set “in vitro” (chlorocebus sabaeus) turned out to be 27.9 µM. Besides, the EC50 in data set [1] amounted to 8.4 µM; in data set [2], 1.55 µM.

With `O=C(Nc1cccc(Cl)c1)c1ccc(-c2ccccc2OC2CCNCC2)s1` [compound 48, N-(3-Chlorophenyl)-5-(2-(piperidin-4-yloxy)phenyl)thiophene-2-carboxamide], the “SI (CC50/EC50)” value in data set [3] was found to be 4.8; in data set [5], 17.1. Also, the CC50 at 24 h in “in vitro” (chlorocebus sabaeus) worked out at 22.3 µM. Also, the figures for the EC50 in data set [1] and in data set [2] were 4.65 µM and 1.3 µM, respectively.

For the compound `O=C(NCCc1ccccc1)c1ccc(-c2ccccc2OC2CCNCC2)s1` [compound 49, N-Phenethyl-5-(2-(piperidin-4-yloxy)phenyl)thiophene-2-carboxamide], the inhibition at 10 µM in data set [4] is -160%. Moreover, the “SI (CC50/EC50)” value in data set [3] turned out to be 5.6; in data set [5] it was 36.9. The CC50 at 24 h in “in vitro” (chlorocebus sabaeus) came out at 29.2 µM. Besides, the results for the EC50 in data set [1] and in data set [2] were 5.2 µM and 0.79 µM, respectively.

On to `O=C(Nc1ccc(N2CCOCC2)cc1)c1ccc(-c2ccccc2OC2CCNCC2)s1` [compound 50, N-(4-Morpholinophenyl)-5-(2-(piperidin-4-yloxy)phenyl)thiophene-2-carboxamide], for which, in data set [4], the inhibition at 10 µM was -31%. In addition, the “SI (CC50/EC50)” value in data set [3] is listed as 2.26; in data set [5], 2.8. In addition, the CC50 at 24 h in the data set “in vitro” (chlorocebus sabaeus) stood at 22 µM. For the same compound, the concentration for a half-maximal effect (EC50) in data set [1] is 9.7 µM; in data set [2] it was 7.74 µM.

As to `O=C(NCCC1CCN(Cc2ccccc2)CC1)c1ccc(-c2ccccc2OC2CCNCC2)s1` [compound 51, N-(2-(1-Benzylpiperidin-4-yl)ethyl)-5-(2-(piperidin-4-yloxy)phenyl)thiophene-2-carboxamide], the inhibition at 10 µM in data set [4] is -148%. In addition, the “SI (CC50/EC50)” value in data set [3] turned out to be 2; in data set [5], 6.6. The same compound gave a CC50 at 24 h in “in vitro” (chlorocebus sabaeus) of 19.5 µM. Further, the EC50 worked out at 9.3 µM in data set [1] and 2.96 µM in data set [2].

Take `O=C(c1ccc(-c2ccccc2OC2CCNCC2)s1)N1CCCC1` [compound 52, (5-(2-(Piperidin-4-yloxy)phenyl)thiophen-2-yl)(pyrrolidin-1-yl)methanone]: the inhibition at 10 µM in data set [4] is -108%; in data set [1] it was -116%. In addition, in data set [3], the “antiviral activity” value is “completely inactive”. Also, in the data set “in vitro” (chlorocebus sabaeus), the CC50 is above 100 µM.

`O=C(Nc1ccc(Cl)cc1)c1ccc(-c2cccc(OC3CCNCC3)c2)s1` [compound 54, N-(4-Chlorophenyl)-5-(3-(piperidin-4-yloxy)phenyl)thiophene-2-carboxamide]: the inhibition at 10 µM in data set [4] came out at 30%. In addition, the “SI (CC50/EC50)” value stood at 2.8 in data set [3] and 8.9 in data set [5]. This compound also registered a CC50 at 24 h in the data set “in vitro” (chlorocebus sabaeus) of 10 µM. Also, the figures for the EC50 in data set [1] and in data set [2] were 3.53 µM and 1.12 µM, respectively.

`O=C(Nc1cccc(Cl)c1)c1ccc(-c2cccc(OC3CCNCC3)c2)s1` [compound 55, N-(3-Chlorophenyl)-5-(3-(piperidin-4-yloxy)phenyl)thiophene-2-carboxamide]: the inhibition at 10 µM in data set [4] is -4%. Moreover, in data set [5], the “SI (CC50/EC50)” value came to 8.0. In addition, the CC50 at 24 h in the data set “in vitro” (chlorocebus sabaeus) was found to be 15 µM. The EC50 came out at 7.5 µM in data set [1] and 1.86 µM in data set [2].

In the case of `O=C(NCCc1ccccc1)c1ccc(-c2cccc(OC3CCNCC3)c2)s1` [compound 56, N-Phenethyl-5-(3-(piperidin-4-yloxy)phenyl)thiophene-2-carboxamide], the inhibition at 10 µM in data set [4] is -182%. Also, the “SI (CC50/EC50)” value in data set [3] came to 1.98; in data set [5] it was 2.0. Also, the CC50 at 24 h in the data set “in vitro” (chlorocebus sabaeus) came to 10 µM. Besides, the EC50 in data set [1] came to 5.03 µM; in data set [2], 4.93 µM.

For the compound `O=C(Nc1ccc(Cl)cc1)c1ccc(-c2ccc(OC3CCNCC3)cc2)s1` [compound 58, N-(4-Chlorophenyl)-5-(4-(piperidin-4-yloxy)phenyl)thiophene-2-carboxamide], in data set [4], the inhibition at 10 µM is -12%. Also, the “SI (CC50/EC50)” value is 1.39 in data set [3] and 4.13 in data set [5]. This compound registered a CC50 at 24 h in the data set “in vitro” (chlorocebus sabaeus) of 10 µM. Moreover, the figures for the EC50 in data set [1] and in data set [2] were 7.18 µM and 2.42 µM, respectively.

For `O=C(Nc1cccc(Cl)c1)c1ccc(-c2ccc(OC3CCNCC3)cc2)s1` [compound 59, N-(3-Chlorophenyl)-5-(4-(piperidin-4-yloxy)phenyl)thiophene-2-carboxamide], the inhibition at 10 µM in data set [4] turned out to be 5%. In addition, the “SI (CC50/EC50)” value worked out at 3.8 in data set [3] and 21.8 in data set [5]. In addition, the CC50 at 24 h in “in vitro” (chlorocebus sabaeus) stood at 26 µM. The EC50 was 7.91 µM in data set [1] and 1.19 µM in data set [2].

On to `O=C(NCCc1ccccc1)c1ccc(-c2ccc(OC3CCNCC3)cc2)s1` [compound 60, N-Phenethyl-5-(4-(piperidin-4-yloxy)phenyl)thiophene-2-carboxamide], for which the inhibition at 10 µM was -12% in data set [4] and -8% in data set [1]. The “antiviral activity” value in data set [3] was “completely inactive”. In “in vitro” (chlorocebus sabaeus), this compound yielded a CC50 at 24 h of 10 µM.

On to `O=C(NCCC1CCN(Cc2ccccc2)CC1)c1ccc(-c2ccc(OC3CCNCC3)cc2)s1` [compound 63, N-(2-(1-Benzylpiperidin-4-yl)ethyl)-5-(4-(piperidin-4-yloxy)phenyl)thiophene-2-carboxamide], for which the inhibition at 10 µM in data set [4] came to 12%; in data set [1], 58%. The “antiviral activity” value in data set [3] is “completely inactive”. In the data set “in vitro” (chlorocebus sabaeus), the CC50 was above 100 µM.

`O=C(Nc1ccccc1)c1ccc(-c2ccccc2OC2CCN(Cc3ccccc3)CC2)s1` [compound 64]: in data set [3], the “antiviral activity” value is listed as “lacked activity”. This compound also displayed a CC50 in the data set “in vitro” (chlorocebus sabaeus) above 200 µM. For the same compound, the inhibition at 10 µM in data set [1] is 27%.

`O=C(NCCC1CCN(Cc2ccccc2)CC1)c1cnc(-c2ccc(OC3CCNCC3)cc2)s1` [compound 79, N-(2-(1-Benzylpiperidin-4-yl)ethyl)-2-(4-(piperidin-4-yloxy)phenyl)thiazole-5-carboxamide]: the inhibition at 10 µM in data set [4] came out at 39%. In addition, the “SI (CC50/EC50)” value is listed as 12 in data set [3] and 12.8 in data set [5]. The compound further had a CC50 in “in vitro” (chlorocebus sabaeus) above 100 µM. The values for the EC50 in data set [1] and in data set [2] were 8.3 µM and 7.83 µM, respectively.

For `O=C(NCCc1ccccc1)c1cnc(-c2ccccc2OC2CCNCC2)s1` [compound 97, N-Phenethyl-2-(2-(piperidin-4-yloxy)phenyl)thiazole-5-carboxamide], in data set [4], the inhibition at 10 µM was determined as 18%. The “SI (CC50/EC50)” value in data set [3] turned out to be 14.5; in data set [5], 5.8. Moreover, the CC50 at 24 h in “in vitro” (chlorocebus sabaeus) stood at 91 µM. The EC50 in data set [1] was 6.27 µM; in data set [2], 15.7 µM.

Turning to `O=C(Nc1ccc(Cl)cc1)c1ccc(-c2ccccc2OC2CCNCC2)o1` [compound 99, N-(4-Chlorophenyl)-5-(2-(piperidin-4-yloxy)phenyl)furan-2-carboxamide], the inhibition at 10 µM in data set [4] turned out to be 10%. Also, the “SI (CC50/EC50)” value in data set [3] is reported as 3.1; in data set [5], 7.9. The same compound yielded a CC50 at 24 h in “in vitro” (chlorocebus sabaeus) of 20 µM. Also, the EC50 in data set [1] was determined as 6.35 µM; in data set [2], 2.53 µM.

On to `O=C(Nc1ccccc1)c1ccc(-c2ccccc2OC2CCNCC2)o1` [compound 100, N-Phenyl-5-(2-(piperidin-4-yloxy)phenyl)furan-2-carboxamide], for which the inhibition at 10 µM in data set [4] was determined as 32%. Further, in data set [3], the “SI (CC50/EC50)” value was 3.8. The same compound returned a CC50 at 24 h in “in vitro” (chlorocebus sabaeus) of 79 µM. Further, the EC50 in data set [1] worked out at 20.7 µM.

On to `O=C(NCCC1CCN(Cc2ccccc2)CC1)c1ccc(-c2ccccc2OC2CCNCC2)o1` [compound 101, N-(2-(1-Benzylpiperidin-4-yl)ethyl)-5-(2-(piperidin-4-yloxy)phenyl)furan-2-carboxamide], for which the inhibition at 10 µM in data set [4] was 39%. Further, the results for the “SI (CC50/EC50)” value in data set [3] and in data set [5] were 18.7 and 9.5, respectively. In the data set “in vitro” (chlorocebus sabaeus), this compound displayed a CC50 at 24 h of 90 µM. Besides, the EC50 in data set [1] came out at 4.81 µM; in data set [2], 9.5 µM.

`O=C(NCCc1ccccc1)c1ccc(-c2ccccc2OC2CCNCC2)o1` [compound 102, N-Phenethyl-5-(2-(piperidin-4-yloxy)phenyl)furan-2-carboxamide]: the inhibition at 10 µM in data set [4] is -23%. In addition, the “SI (CC50/EC50)” value in data set [3] is on record as 12.77; in data set [5], 4.5. The compound further came in with a CC50 at 24 h in the data set “in vitro” (chlorocebus sabaeus) of 27.6 µM. For the same compound, the results for the EC50 in data set [1] and in data set [2] were 2.16 µM and 6.19 µM, respectively.
